We go through two molecules from patent publication US9623021B2, “Nuclear receptor binding agents” (GTX, Inc., priority 2007, dated 2017).

Series [1] deals with ERα ligand binding domain (Homo sapiens (Human), UniProt P03372). As to the kind of experiment: Competitive [3H]-estradiol radioligand binding, ERα (Example 21). The method, then:
(§1) ER binding affinity was determined via one of the following methods:
(§2) Briefly, the incubation mixture was filtered through a high affinity protein binding filter, and washed several times to remove any unbound radioactivity. The filter plate was air dried and sealed on the bottom.
(§3) Following incubation, plates were harvested onto GF/B filters and radioactivity was measured with a TopCount NXT (PerkinElmer). Nonspecific binding was subtracted from total binding to yield specific binding.

The target of series [2] is ERβ ligand binding domain (Homo sapiens (Human), UniProt Q92731). Put plainly: Competitive [3H]-estradiol radioligand binding, ERβ (Example 21). The conditions noted are these: ratio between the binding constants of ER-α and ER-β. On the procedure: as §1, §2, §3
Sequence of ERβ ligand binding domain (Q92731 264-498, species assumed): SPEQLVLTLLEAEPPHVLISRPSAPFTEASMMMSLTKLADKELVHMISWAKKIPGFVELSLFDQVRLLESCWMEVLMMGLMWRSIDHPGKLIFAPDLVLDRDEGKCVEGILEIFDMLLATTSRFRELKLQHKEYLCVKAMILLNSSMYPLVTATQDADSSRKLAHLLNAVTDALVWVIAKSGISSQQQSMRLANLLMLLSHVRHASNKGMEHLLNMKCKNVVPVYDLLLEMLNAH
Series [3] deals with LNCaP prostate cancer cells. As to the kind of experiment: LNCaP prostate cancer cell proliferation (3H thymidine incorporation). The series is classed as cell-based. To be noted: treated for 6 days, FIG. 21. On the procedure:
(§4) The effects of treatment of an ER-β selective NRBA of this invention on cancer cell proliferation was examined using LNCaP prostate cancer cells and C-26 colon cancer cells. LNCaP or C-26 cells were plated in growth medium in 24 well and 6 well plates, respectively. LNCaP cells were treated for 6 days and C-26 cells were treated for 3 days at the indicated concentration. ^3H thymidine incorporation was measured at the end of treatment as an indicator of cell proliferation.

The target of another series is ER-α (Rattus norvegicus (Rat), UniProt P06211). The class given is cell-based. To be noted: 100 nM NRBA compared to 1 nM estradiol. On the procedure: COS or 293 cells were plated in DME without phenol red+10% cs FBS at 90,000 cells per well in 24 well plates, and were transfected with 0.25 μg of the vector “ERE-LUC”, where a firefly luciferase gene was driven by two estrogen responsive elements and 0.02 μg of the control CMV-LUC, Renilla where a luciferase gene was driven by a CMV promoter. […] All the receptors were cloned from rat tissue into the PCR3.1 vector backbone. Twenty four hours post transfection, cells were treated with compounds of this invention, estrogen, DHT, and other NRBAs or combinations thereof. Cells were harvested 48 hrs after transfection, and assayed for firefly and Renilla luciferase activity.

A further series has as its system C-26 colon cancer cells. Put plainly: C-26 colon cancer cell proliferation (3H thymidine incorporation). To be noted: treated for 3 days, FIG. 22. The class given is cell-based. The method, then:
as §4

A further series deals with paw edema. As to the kind of experiment: Carrageenan-induced paw edema (acute inflammation model). The class given is in vivo. The conditions noted are these: per-oral, 1 hr prior to Carrageenan challenge; measured 4 hours post-Carrageenan injection. The method, then:
FIG. 14 depicts the effect of 12b on the edema volume which was induced by Carrageenan (i.e. Carrageenan-induce raw paw edema as an acute inflammation model).
To determine the anti-inflammatory effects of ER-β NRBAs in vivo, animal paws were injected with carrageenan, which elicits an acute local inflammatory response. Per-oral treatment of 12b.

Series [4] has as its system LNCaP cells and human prostate stromal cells xenograft. Put plainly: LNCaP-stromal cell xenograft tumor growth. The series is classed as in vivo, nude mice. To be noted: 30 mg/kg/day for 21 days, by day 21. The method, then:
Prostate tumor xenografts were established with LNCaP cells and human prostate stromal cells in nude mice to establish the in vivo anti-proliferative effects of these ER-β NRBAs. A 4:1 ratio (based on cell number) of LNCaP:stroma cells was injected subcutaneously in nude mice and allowed to grow until they attained 100 mm^3 in volume, as measured by calipers. […] Tumor volumes were measured twice a week and percent tumor volume calculated, after 10, 14 and 21 days.

A further series deals with uterus. Put plainly: Uterotropic assay. To be noted: 10 mg/kg/day orally, 3 days. The method, then: Statistical differences among groups were evaluated by one-way ANOVA. Rats were treated for 3 consecutive days and then sacrificed 24 h after the last dose. The body of the uterus was cut just above its junction with the cervix and at the junction of the uterine horns with the ovaries. The uterus was weighed with and without intrauterine fluid. Statistical comparisons were made between the weights of empty uteri.

In series [5] the test system is Rat Aortic Smooth Muscle Cells (RASMC). As to the kind of experiment: RASMC cell proliferation assay (WST-1). The conditions noted are these: 10 μM and 30 μM. Background: Tetrazolium assays rely on reduction of a dye to a coloured formazan, in cell work by metabolically active cells.

The structures appear in SMILES notation.

Sequence of ERα ligand binding domain (P03372 whole entry, looked up, species assumed, the tested form may be a part): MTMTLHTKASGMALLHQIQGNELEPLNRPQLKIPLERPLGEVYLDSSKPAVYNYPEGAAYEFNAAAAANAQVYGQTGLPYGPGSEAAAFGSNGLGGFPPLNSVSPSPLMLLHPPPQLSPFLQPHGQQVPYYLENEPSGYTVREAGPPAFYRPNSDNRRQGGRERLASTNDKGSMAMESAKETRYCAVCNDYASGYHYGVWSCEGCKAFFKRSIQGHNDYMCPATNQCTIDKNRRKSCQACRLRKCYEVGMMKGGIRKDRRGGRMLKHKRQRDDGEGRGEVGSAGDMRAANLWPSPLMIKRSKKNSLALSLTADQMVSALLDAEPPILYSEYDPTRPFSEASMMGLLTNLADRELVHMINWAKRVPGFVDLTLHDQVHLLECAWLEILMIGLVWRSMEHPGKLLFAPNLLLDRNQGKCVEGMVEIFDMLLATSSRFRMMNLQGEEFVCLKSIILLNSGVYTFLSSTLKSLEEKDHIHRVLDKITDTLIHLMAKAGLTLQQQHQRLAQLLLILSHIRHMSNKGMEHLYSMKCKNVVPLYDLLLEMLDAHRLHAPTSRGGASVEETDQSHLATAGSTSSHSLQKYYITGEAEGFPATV

As for `O=c1c2ccc(O)cc2c(Br)cn1-c1ccc(O)cc1` [Compound 12b, 4-bromo-6-hydroxy-2-(4-hydroxyphenyl)-isoquinolin-1(2H)-one], the affinity in [1], expressed as Ki, was 998 nM. Also, the “Ki Ratio (ER-α/ER-β)” value in series [2] turned out to be 20. Besides, in series [3], the “growth of LNCaP prostate cancer cells” value was “significantly inhibited the growth”. The “Estradiol activity at 100 nM, ER-α” value at ER-α came out at 31.2%. In the series on C-26 colon cancer cells, the “growth of C-26 colon cancer cells” value is “significantly inhibited the growth”. Further, in the series on paw edema, the “reduction in paw edema” value is 53%. Moreover, in series [4], the “tumor growth (percent tumor volume)” value was “inhibited the growth of tumor significantly”.
Regarding `CC/C(=C(\c1ccccc1)c1ccc(OCCN(C)C)cc1)c1ccccc1` [Tamoxifen, tamoxifen], the “uterine growth / uterine weight” value in the series on uterus was “stimulated the proliferation of uterus significantly”. In [5], the “cell numbers compared to day 0” value is “toxicity”.
